According to PMC9959918 (2023):
Each block holds one molecule with its values, some of them ahead of it.

How the values were obtained:
[1] = tested on: CPG-tel26 (DNA, G4) TTAGGGTTAGGGTTAGGGTTAGGGTT; experiment: G4-CPG affinity assay, UV; conditions: 50 mM KCl, 10% DMSO, 10% ethanol, 60 μM compound, error ±2%
[2] = tested on: CPG-c-myc (DNA, G4) TGGGGAGGGTGGGGAGGGTGGGGAAGGTGGGGA; experiment: G4-CPG affinity assay, UV; conditions: 50 mM KCl, 10% DMSO, 10% ethanol, 60 μM compound, error ±2%
[3] = tested on: CPG-ds27 (DNA, hairpin) CGCGAATTCGCGTTTCGCGAATTCGCG; experiment: G4-CPG affinity assay, UV; conditions: 50 mM KCl, 10% DMSO, 10% ethanol, 60 μM compound, error ±2%
[4] = tested on: tel26 (DNA, G4) TTAGGGTTAGGGTTAGGGTTAGGGTT; experiment: CD melting, 290 nm; conditions: 5 mM KCl, 5 mM KH2PO4; 5% DMSO, pH 7; 2 μM DNA, 20 μM compound (10 equiv.); Tm ± 1
[5] = tested on: Pu22T14T23 (Pu22) (DNA, G4) TGAGGGTGGGTAGGGTGGGTAA; experiment: CD melting, 265 nm; conditions: 5 mM KCl, 5 mM KH2PO4; 5% DMSO, pH 7; 2 μM DNA, 20 μM compound (10 equiv.); Tm ± 1
[6] = tested on: ds12 (Dickerson dodecamer) (DNA, duplex) CGCGAATTCGCG; experiment: CD melting, 253 nm; conditions: 5 mM KCl, 5 mM KH2PO4; 5% DMSO, pH 7; 2 μM DNA, 20 μM compound (10 equiv.); Tm ± 1
[7] = tested on: tel26 (DNA, G4) TTAGGGTTAGGGTTAGGGTTAGGGTT; experiment: fluorescence titration, 2 μM ligand, equivalent-sites fit; conditions: 5 mM KCl, 5 mM KH2PO4; 5% DMSO, pH 7, 20 °C
[8] = tested on: Pu22T14T23 (Pu22) (DNA, G4) TGAGGGTGGGTAGGGTGGGTAA; experiment: as above; conditions: 5 mM KCl, 5 mM KH2PO4; 5% DMSO, pH 7, 20 °C
[9] = tested on: ds12 (Dickerson dodecamer) (DNA, duplex) CGCGAATTCGCG; experiment: as above; conditions: 5 mM KCl, 5 mM KH2PO4; 5% DMSO, pH 7, 20 °C

Bound Ligand ([1]; nude CPG 8%): 8% | Bound Ligand ([2]; nude CPG 8%): 8% | Bound Ligand ([3]; nude CPG 8%): 8%
Compound: CC1(C)C=Cc2c(ccc3c2O[C@@H]2COc4cc5c(cc4[C@@H]2C3=O)OCO5)O1

Bound Ligand ([1]; nude CPG 0%): 2% | Bound Ligand ([2]; nude CPG 0%): 1% | Bound Ligand ([3]; nude CPG 0%): 0%
Compound: COc1cc2c(cc1OC)-c1c(OC)c(OC)cc3c1[C@H](C2)N(C)CC3

ΔTm [4]: +3 °C | ΔTm [5]: +5 °C | ΔTm [6]: +1 °C | Bound Ligand ([1]; nude CPG 0%): 67% | Bound Ligand ([2]; nude CPG 0%): 47% | Bound Ligand ([3]; nude CPG 0%): 30% | Kb [7]: (2.8 ± 1.2) × 10^6 M^−1 | Kb [8]: (0.8 ± 0.5) × 10^6 M^−1 | Kb [9]: (3.2 ± 0.4) × 10^5 M^−1
Compound: COc1cc2c(cc1OC)-c1c3c(cc4c1[C@H](C2)N(C)CC4)OCO3

Bound Ligand ([1]; nude CPG 0%): 0% | Bound Ligand ([2]; nude CPG 0%): 0% | Bound Ligand ([3]; nude CPG 0%): 0%
Compound: COc1cc2c(cc1OC)[C@@H]1C(=O)c3ccc4c(c3O[C@@H]1CO2)C=CC(C)(C)O4

Bound Ligand ([3]; nude CPG 21%): 4%
Compound: COc1ccc2c(c1OC)CN1CCc3cc4c(cc3[C@@H]1C2)OCO4
